Where “and” joins values, the source holds several entries; their conditions need not be identical. Equal entries are not always repeated.
Experiments:
Experiment in all cases: Kinase assay, wild type kinases
Assay type in all cases: biochemical
Aurora B = Aurora B (Homo sapiens, UniProt Q96GD4); conditions: compound 10 μM, 10 μM ATP, duplicate (Data 1, Data 2), >100 activation, <100 inhibition; for remaining activity at 10 µM: read-out: % Enzyme Activity (relative to DMSO controls), Aurora B
ERK7/MAPK15 = molecular target: T1, ERK7/MAPK15 (Homo sapiens, UniProt Q8TD08); conditions: compound 10 μM, 10 μM ATP, duplicate (Data 1, Data 2), >100 activation, <100 inhibition; for remaining activity at 10 µM: read-out: % Enzyme Activity (relative to DMSO controls), ERK7/MAPK15
T1 sequence (Q8TD08 1-544): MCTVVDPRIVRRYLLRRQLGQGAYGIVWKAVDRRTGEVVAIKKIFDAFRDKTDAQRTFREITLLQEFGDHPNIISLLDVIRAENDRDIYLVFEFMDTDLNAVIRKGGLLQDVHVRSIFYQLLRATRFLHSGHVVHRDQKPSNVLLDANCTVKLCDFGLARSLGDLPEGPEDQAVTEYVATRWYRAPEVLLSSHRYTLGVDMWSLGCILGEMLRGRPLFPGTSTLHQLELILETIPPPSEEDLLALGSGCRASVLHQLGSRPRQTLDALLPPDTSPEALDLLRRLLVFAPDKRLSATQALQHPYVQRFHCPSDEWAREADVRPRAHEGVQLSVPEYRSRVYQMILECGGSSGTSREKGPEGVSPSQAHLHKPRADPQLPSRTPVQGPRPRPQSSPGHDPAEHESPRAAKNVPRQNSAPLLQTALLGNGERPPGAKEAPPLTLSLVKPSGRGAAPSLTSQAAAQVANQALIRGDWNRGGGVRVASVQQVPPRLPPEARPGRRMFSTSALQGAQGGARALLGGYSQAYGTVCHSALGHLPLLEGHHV

GSK3b = GSK3b (Homo sapiens, UniProt P49841); conditions: compound 10 μM, 10 μM ATP, duplicate (Data 1, Data 2), >100 activation, <100 inhibition; for remaining activity at 10 µM: read-out: % Enzyme Activity (relative to DMSO controls), GSK3b
Chain of GSK3b (P49841 whole entry, species assumed): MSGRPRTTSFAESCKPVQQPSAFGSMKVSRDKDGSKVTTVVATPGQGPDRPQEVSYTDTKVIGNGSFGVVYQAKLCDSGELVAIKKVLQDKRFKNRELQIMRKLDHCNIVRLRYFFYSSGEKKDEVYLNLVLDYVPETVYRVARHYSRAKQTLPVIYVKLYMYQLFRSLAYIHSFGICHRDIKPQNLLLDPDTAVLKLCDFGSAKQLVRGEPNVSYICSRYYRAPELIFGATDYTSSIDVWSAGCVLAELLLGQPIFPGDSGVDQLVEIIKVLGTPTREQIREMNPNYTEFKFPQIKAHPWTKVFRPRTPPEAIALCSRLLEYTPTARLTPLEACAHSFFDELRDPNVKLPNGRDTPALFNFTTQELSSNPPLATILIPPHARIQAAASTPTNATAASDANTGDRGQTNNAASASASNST

MELK = MELK (Homo sapiens, UniProt Q14680); conditions: compound 10 μM, 10 μM ATP, duplicate (Data 1, Data 2), >100 activation, <100 inhibition; for remaining activity at 10 µM: read-out: % Enzyme Activity (relative to DMSO controls), MELK
Chain of MELK (Q14680 whole entry, species assumed): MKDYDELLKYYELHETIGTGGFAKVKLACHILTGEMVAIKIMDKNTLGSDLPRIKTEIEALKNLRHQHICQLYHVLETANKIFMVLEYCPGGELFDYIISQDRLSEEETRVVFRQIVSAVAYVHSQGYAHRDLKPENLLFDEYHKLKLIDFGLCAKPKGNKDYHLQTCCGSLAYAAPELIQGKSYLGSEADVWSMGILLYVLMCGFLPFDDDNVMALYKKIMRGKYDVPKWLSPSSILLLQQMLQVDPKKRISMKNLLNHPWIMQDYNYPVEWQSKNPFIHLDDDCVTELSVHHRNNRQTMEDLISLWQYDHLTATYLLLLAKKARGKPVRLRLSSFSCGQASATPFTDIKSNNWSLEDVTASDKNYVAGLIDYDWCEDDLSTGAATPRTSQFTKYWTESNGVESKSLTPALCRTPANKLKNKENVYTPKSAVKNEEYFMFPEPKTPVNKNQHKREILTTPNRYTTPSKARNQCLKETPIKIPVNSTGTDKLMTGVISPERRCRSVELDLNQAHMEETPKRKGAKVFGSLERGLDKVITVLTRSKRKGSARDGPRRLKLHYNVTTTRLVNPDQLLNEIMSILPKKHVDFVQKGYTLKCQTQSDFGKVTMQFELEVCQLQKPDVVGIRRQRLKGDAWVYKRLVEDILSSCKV

NEK2 = molecular target: T2, NEK2 (Homo sapiens, UniProt P51955); conditions: compound 10 μM, 10 μM ATP, duplicate (Data 1, Data 2), >100 activation, <100 inhibition; for remaining activity at 10 µM: read-out: % Enzyme Activity (relative to DMSO controls), NEK2
T2 sequence (P51955 1-445): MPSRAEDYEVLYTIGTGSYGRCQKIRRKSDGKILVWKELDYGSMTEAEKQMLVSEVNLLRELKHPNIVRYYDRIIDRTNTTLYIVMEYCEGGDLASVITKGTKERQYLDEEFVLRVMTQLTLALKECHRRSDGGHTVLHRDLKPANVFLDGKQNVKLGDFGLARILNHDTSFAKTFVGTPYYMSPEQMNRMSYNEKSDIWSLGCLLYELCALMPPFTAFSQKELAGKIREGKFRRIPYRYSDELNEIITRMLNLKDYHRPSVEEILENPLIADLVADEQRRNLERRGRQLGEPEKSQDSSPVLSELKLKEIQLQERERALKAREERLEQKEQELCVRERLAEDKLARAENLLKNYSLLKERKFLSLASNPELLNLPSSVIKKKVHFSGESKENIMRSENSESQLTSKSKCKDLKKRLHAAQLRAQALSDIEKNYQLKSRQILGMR

PIM3 = PIM3 (Homo sapiens, UniProt Q86V86); conditions: compound 10 μM, 10 μM ATP, duplicate (Data 1, Data 2), >100 activation, <100 inhibition; for remaining activity at 10 µM: read-out: % Enzyme Activity (relative to DMSO controls), PIM3
RIPK4 = molecular target: T3, RIPK4 (Homo sapiens, UniProt P57078); conditions: compound 10 μM, 10 μM ATP, duplicate (Data 1, Data 2), >100 activation, <100 inhibition; for remaining activity at 10 µM: read-out: % Enzyme Activity (relative to DMSO controls), RIPK4
T3 sequence (P57078 1-832): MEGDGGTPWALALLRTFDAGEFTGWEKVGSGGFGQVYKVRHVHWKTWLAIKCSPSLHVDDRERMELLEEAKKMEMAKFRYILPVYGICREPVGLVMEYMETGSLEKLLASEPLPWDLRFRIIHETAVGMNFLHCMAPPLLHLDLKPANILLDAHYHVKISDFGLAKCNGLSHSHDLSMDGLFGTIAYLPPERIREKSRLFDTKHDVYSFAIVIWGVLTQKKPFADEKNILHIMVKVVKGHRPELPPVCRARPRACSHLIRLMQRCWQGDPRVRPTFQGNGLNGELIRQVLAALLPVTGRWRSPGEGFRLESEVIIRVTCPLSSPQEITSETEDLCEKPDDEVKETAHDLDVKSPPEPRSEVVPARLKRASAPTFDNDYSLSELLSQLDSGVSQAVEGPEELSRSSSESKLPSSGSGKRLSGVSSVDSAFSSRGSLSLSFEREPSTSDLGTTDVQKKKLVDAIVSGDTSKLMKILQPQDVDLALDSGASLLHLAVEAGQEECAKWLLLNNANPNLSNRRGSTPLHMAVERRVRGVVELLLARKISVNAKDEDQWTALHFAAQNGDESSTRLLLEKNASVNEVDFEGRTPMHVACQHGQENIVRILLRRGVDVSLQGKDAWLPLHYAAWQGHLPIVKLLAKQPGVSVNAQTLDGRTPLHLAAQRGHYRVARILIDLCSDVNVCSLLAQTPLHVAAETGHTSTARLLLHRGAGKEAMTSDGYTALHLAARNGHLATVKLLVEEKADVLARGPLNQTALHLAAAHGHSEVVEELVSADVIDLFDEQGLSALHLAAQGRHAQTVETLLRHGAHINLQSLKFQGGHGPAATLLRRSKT

TNIK = TNIK (Homo sapiens, UniProt Q9UKE5); conditions: compound 10 μM, 10 μM ATP, duplicate (Data 1, Data 2), >100 activation, <100 inhibition; for remaining activity at 10 µM: read-out: % Enzyme Activity (relative to DMSO controls), TNIK
Chain of TNIK (Q9UKE5 whole entry, species assumed): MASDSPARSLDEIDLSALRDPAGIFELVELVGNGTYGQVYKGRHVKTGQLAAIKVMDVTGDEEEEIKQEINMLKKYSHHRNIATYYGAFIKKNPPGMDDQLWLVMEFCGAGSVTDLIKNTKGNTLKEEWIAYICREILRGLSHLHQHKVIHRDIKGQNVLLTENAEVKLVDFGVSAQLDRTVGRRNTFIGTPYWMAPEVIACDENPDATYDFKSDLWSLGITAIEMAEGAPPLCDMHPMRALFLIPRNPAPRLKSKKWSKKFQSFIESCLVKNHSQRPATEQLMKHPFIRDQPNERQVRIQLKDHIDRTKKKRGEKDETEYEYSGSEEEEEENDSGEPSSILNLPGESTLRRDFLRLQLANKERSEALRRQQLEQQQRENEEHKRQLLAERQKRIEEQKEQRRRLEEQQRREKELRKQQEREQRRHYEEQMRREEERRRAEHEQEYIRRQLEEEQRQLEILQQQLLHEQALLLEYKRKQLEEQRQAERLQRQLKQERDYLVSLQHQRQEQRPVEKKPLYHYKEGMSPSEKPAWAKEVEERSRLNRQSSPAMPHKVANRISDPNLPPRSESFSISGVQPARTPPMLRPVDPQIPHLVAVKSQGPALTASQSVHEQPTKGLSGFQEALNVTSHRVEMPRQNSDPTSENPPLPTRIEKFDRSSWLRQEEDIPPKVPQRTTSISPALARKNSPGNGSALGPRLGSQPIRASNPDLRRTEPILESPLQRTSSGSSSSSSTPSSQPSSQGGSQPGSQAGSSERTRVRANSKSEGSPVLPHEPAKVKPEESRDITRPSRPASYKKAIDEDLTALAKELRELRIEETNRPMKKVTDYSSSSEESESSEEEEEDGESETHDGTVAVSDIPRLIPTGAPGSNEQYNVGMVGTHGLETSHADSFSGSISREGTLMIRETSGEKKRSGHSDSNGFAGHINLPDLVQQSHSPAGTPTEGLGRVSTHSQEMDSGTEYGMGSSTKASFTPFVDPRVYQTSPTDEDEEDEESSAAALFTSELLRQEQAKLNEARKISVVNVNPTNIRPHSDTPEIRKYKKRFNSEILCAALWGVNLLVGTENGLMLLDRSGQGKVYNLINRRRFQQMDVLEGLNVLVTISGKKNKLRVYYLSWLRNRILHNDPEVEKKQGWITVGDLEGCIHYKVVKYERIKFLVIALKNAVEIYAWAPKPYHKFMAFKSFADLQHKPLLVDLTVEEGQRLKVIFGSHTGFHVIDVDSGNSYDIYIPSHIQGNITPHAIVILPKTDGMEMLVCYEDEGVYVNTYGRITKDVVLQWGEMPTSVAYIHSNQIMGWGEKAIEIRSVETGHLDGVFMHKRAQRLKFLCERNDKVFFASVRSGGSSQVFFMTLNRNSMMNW

Chain of Aurora B (Q96GD4 whole entry): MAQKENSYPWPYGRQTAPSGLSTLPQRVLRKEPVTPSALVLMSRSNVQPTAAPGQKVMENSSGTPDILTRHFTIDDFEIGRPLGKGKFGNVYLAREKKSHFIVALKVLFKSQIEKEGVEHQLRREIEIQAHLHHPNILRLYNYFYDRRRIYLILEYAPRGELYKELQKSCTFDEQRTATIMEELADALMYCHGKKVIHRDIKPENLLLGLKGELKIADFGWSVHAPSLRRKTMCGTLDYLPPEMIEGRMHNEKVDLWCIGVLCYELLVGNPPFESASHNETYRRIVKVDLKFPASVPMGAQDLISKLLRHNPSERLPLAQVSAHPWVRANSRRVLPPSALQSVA

| SMILES | % Enzyme Activity (relative to DMSO controls), Aurora B (Aurora B) | % Enzyme Activity (relative to DMSO controls), ERK7/MAPK15 (ERK7/MAPK15) | % Enzyme Activity (relative to DMSO controls), GSK3b (GSK3b) | % Enzyme Activity (relative to DMSO controls), MELK (MELK) | % Enzyme Activity (relative to DMSO controls), NEK2 (NEK2) | % Enzyme Activity (relative to DMSO controls), PIM3 (PIM3) | % Enzyme Activity (relative to DMSO controls), RIPK4 (RIPK4) | % Enzyme Activity (relative to DMSO controls), TNIK (TNIK) | remaining activity at 10 µM (Aurora B) [%] | remaining activity at 10 µM (ERK7/MAPK15) [%] | remaining activity at 10 µM (GSK3b) [%] | remaining activity at 10 µM (MELK) [%] | remaining activity at 10 µM (NEK2) [%] | remaining activity at 10 µM (PIM3) [%] | remaining activity at 10 µM (RIPK4) [%] | remaining activity at 10 µM (TNIK) [%] |
| --- | --- | --- | --- | --- | --- | --- | --- | --- | --- | --- | --- | --- | --- | --- | --- | --- |
| CC(C)(CCCCc1cccc(CCCCC(C)(C)C(=O)SCCNC(=O)CCNC(=O)[C@H](O)C(C)(C)COP(=O)(O)OP(=O)(O)OC[C@H]2O[C@@H](n3cnc4c(N)ncnc43)[C@H](O)[C@@H]2OP(=O)(O)O)c1)C(=O)O [Compound I-32-CoA, 6-[3-(5-Carboxy-5-methylhexyl)-phenyl]-2,2-dimethylhexanoic acid Coenzyme A Ester] | 33.27% and 30.67% | 88.39% and 80.61% | 23.69% and 22.51% | 28.56% and 27.35% | 35.98% and 34.99% | 51.10% and 43.67% | 33.02% and 32.84% | 70.02% and 66.13% | – | – | – | – | – | – | – | – |
| CC(C)(CCCCc1ccc(CCCCC(C)(C)C(=O)SCCNC(=O)CCNC(=O)[C@H](O)C(C)(C)COP(=O)(O)OP(=O)(O)OC[C@H]2O[C@@H](n3cnc4c(N)ncnc43)[C@H](O)[C@@H]2OP(=O)(O)O)cc1)C(=O)O [Compound I-1-CoA, 6-[4-(5-carboxy-5-methylhexyl)-phenyl]-2,2-dimethylhexanoic acid Coenzyme A ester] | 36.79% and 32.68% | 51.57% and 45.02% | 63.29% and 62.44% | 23.02% and 21.99% | 0.89% and 0.63% | 73.92% and 70.32% | 32.26% and 29.70% | 39.22% and 36.50% | – | – | – | – | – | – | – | – |
| CC(C)(CCCCc1ccc(CCCCC(C)(C)C(=O)O)cc1)C(=O)O [Compound I-1, 6-[4-(5-carboxy-5-methylhexyl)-phenyl]-2,2-dimethylhexanoic acid] | – | – | – | – | – | – | – | – | 69 | 100 | 83.2 | 110 | 90.3 | 87.9 | 45.1 | 106 |
| CC(C)(CCCCc1cccc(CCCCC(C)(C)C(=O)O)c1)C(=O)O [Compound I-32, 6-[3-(5-carboxy-5-methylhexyl)-phenyl]-2,2-dimethylhexanoic acid] | – | – | – | – | – | – | – | – | 71.4 | 104 | 78 | 114 | 87.8 | 90 | 43 | 101 |
